Results on 15 molecules are retold here after patent US20020183256A1, “Cytostatic-integrin conjugates having specifically cleavable linking units” (priority 2000, published 2002).

*1 amine or outer side, *2 acyl side, *3 side chain or, on linkers, in order; H or OH if unused. Where a SMILES comes first, the peptide text is derived from it. [ ]: non-standard residue; d: D form. The star is where a group is joined. ξ: configuration not given here. Camptothecin(20R,20-O) = CC[C@]1(O*)C(=O)OCc2c1cc1n(c2=O)Cc2cc3ccccc3nc2-1; X1 = CCCNC(=O)Nc1cccc(S(=O)(=O)Nc2cccc(C(CC(=O)O)N*)c2)c1; NH(1,4-C6H4)NHCS = S=C(Nc1ccc(N[*:1])cc1)[*:2]; ξH = NC(Cc1c[nH]cn1)C(=O)O; CO = O=C([*:1])[*:2]

What all share (assay): Growth inhibition test (MTT), cytotoxic action on tumour cell lines
One data set concerns B16F10. Format: cell-based, mouse. The following applies: B16F10; MTT after day 6; read-out: IC50 values of the cytotoxic action on tumour cell lines, B16F10. On the procedure: (§1) The human large intestine cell lines SW 480 and HT29 (ATCC No. CCL 228 and HTB38 and the mouse melanoma cell line B16F10 (CRL 6475) were grown to confluence in Roux dishes in RPMI 1640 medium with addition of 10% FCS. They were then trypsinized and taken up in RPMI plus 10% FCS to a cell count of 50,000 cells or, for B16F10, 20,000 cells per ml. 100 μl of cell suspension/well were added to a 96 microwell plate and incubated at 37° C. for 1 day in a CO2 incubator. A further 100 μl of RPMI medium and 1 μl of DMSO were then added with the test substances. The growth was checked after day 6. For this, 25 μl of MTT solution (3-(4,5-dimethylthiazol-2-yl)-2,5-diphenyltetrazolium bromide) was added to each well at a starting concentration of 5 mg/ml of H2O. The plate was incubated at 37° C. for 5 hours in a CO2 incubator. The medium was then aspirated and 100 μl of i-propanol/well were added. After shaking with 100 μl of H2O for 30 min, the extinction was measured at 595 nm using a Multiplate Reader (BIO-RAD) 3550-UV).
(§2) The cytostatic action is indicated in Table 2 as an IC50 value, in each case for the individual cell lines.

A further data set relates to HT29. Format: cell-based, human. The note with it: HT29; MTT after day 6; read-out: IC50 values of the cytotoxic action on tumour cell lines, HT29. The method, then:
as §1, §2

The test system of the next data set is SW 480. Format: cell-based, human. The note with it: SW480; MTT after day 6; read-out: IC50 values of the cytotoxic action on tumour cell lines, SW480. The method, then: as §1, §2

Turning to `CCCNC(=O)Nc1cccc(S(=O)(=O)Nc2cccc(C(CC(=O)O)NC(=O)Nc3ccc(NC(=S)N4CCC[C@@H]4C(=O)N[C@@H](CC(C)C)C(=O)NCC(=O)N[C@H](CCC)C(=O)N[C@H](CC(N)=O)C(=O)N[C@@H](C(=O)O[C@@]4(CC)C(=O)OCc5c4cc4n(c5=O)Cc5cc6ccccc6nc5-4)C(C)C)cc3)c2)c1` (single isomer, unassigned) [Example 21], the IC50 – broadly, the concentration that inhibits the measured activity by half – in the data set with B16F10 is 0.2 µM; in the data set on HT29, 0.03 µM; in the data set on SW 480, 0.06 µM.
Regarding `CCCCNC(=O)Nc1cccc(S(=O)(=O)Nc2cccc(C(CC(=O)O)NC(=O)Nc3ccc(NC(=S)NCC(=O)N4CCC[C@@H]4C(=O)N[C@@H](CC(C)C)C(=O)NCC(=O)N[C@H](CC(C)C)C(=O)N[C@H](CC(N)=O)C(=O)N[C@@H](C(=O)O[C@@]4(CC)C(=O)OCc5c4cc4n(c5=O)Cc5cc6ccccc6nc5-4)C(C)C)cc3)c2)c1` (single isomer, unassigned) [Example 22], the half-maximal inhibitory concentration (IC50) was 0.09 µM with B16F10, 0.015 µM in the data set on HT29 and 0.03 µM with SW 480.
`CCCNC(=O)Nc1cccc(S(=O)(=O)Nc2cccc(C(CC(=O)O)NC(=O)Nc3ccc(NC(=S)N4CCC[C@@H]4C(=O)N[C@@H](CC(C)C)C(=O)NCC(=O)N[C@H](Cc4c[nH]cn4)C(=O)N[C@@H](C(=O)O[C@@]4(CC)C(=O)OCc5c4cc4n(c5=O)Cc5cc6ccccc6nc5-4)C(C)C)cc3)c2)c1` (single isomer, unassigned) [Example 26]: the figures for the IC50 in the data set on B16F10, in the data set with HT29 and in the data set with SW 480 were 0.3 µM, 0.05 µM and 0.09 µM, respectively.
In the case of `CCCNC(=O)Nc1cccc(S(=O)(=O)Nc2cccc(C(CC(=O)O)NC(=O)Nc3ccc(NC(=S)N4CCC[C@@H]4C(=O)N[C@@H](CC(C)C)C(=O)NCC(=O)N[C@H](CC(C)C)C(=O)N[C@@H](C(=O)O[C@@]4(CC)C(=O)OCc5c4cc4n(c5=O)Cc5cc6ccccc6nc5-4)C(C)C)cc3)c2)c1` (single isomer, unassigned) [Example 27], the IC50 came to 0.8 µM with B16F10, 0.15 µM with HT29 and 0.2 µM in the data set with SW 480.
Take `CCCNC(=O)Nc1cccc(S(=O)(=O)Nc2cccc(C(CC(=O)O)NC(=O)Nc3ccc(NC(=S)N4CCC[C@@H]4C(=O)N4CCC[C@@H]4C(=O)N[C@@H](CC(C)C)C(=O)NCC(=O)N[C@H](CC(C)C)C(=O)N[C@H](CC(N)=O)C(=O)N[C@@H](C(=O)O[C@@]4(CC)C(=O)OCc5c4cc4n(c5=O)Cc5cc6ccccc6nc5-4)C(C)C)cc3)c2)c1` (single isomer, unassigned) [Example 28]: the results for the IC50 in the data set on B16F10, with HT29 and with SW 480 were 0.25 µM, 0.03 µM and 0.03 µM, respectively.
In the case of `CCCNC(=O)Nc1cccc(S(=O)(=O)Nc2cccc(C(CC(=O)O)NC(=O)Nc3ccc(NC(=S)NCC(=O)N4CCC[C@@H]4C(=O)N[C@@H](CC(C)C)C(=O)NCC(=O)N[C@H](CC(C)C)C(=O)N[C@H](Cc4c[nH]cn4)C(=O)N[C@@H](C(=O)O[C@@]4(CC)C(=O)OCc5c4cc4n(c5=O)Cc5cc6ccccc6nc5-4)C(C)C)cc3)c2)c1` (single isomer, unassigned) [Example 29], the IC50 is 0.4 µM in the data set on B16F10, 0.08 µM in the data set on HT29 and 0.1 µM in the data set on SW 480.
On to `CCCNC(=O)Nc1cccc(S(=O)(=O)Nc2cccc(C(CC(=O)O)NC(=O)Nc3ccc(NC(=S)N4CCC[C@@H]4C(=O)NCC(=O)NCC(=O)N[C@H](CC(C)C)C(=O)N[C@H](CC(N)=O)C(=O)N[C@@H](C(=O)O[C@@]4(CC)C(=O)OCc5c4cc4n(c5=O)Cc5cc6ccccc6nc5-4)C(C)C)cc3)c2)c1` (stereo partly drawn) [Example 23] ({X1-CO}-[NH(1,4-C6H4)NHCS][dP]GG[dL][dN][dV]-{Camptothecin(20R,20-O)}), for which the IC50 worked out at 1.5 µM with B16F10, 0.15 µM in the data set on HT29 and 0.4 µM with SW 480.
As for `CCCNC(=O)Nc1cccc(S(=O)(=O)Nc2cccc(C(CC(=O)O)NC(=O)Nc3ccc(NC(=S)N4CCC[C@@H]4C(=O)NC(Cc4c[nH]cn4)C(=O)NCC(=O)N[C@H](CC(C)C)C(=O)N[C@H](CC(N)=O)C(=O)N[C@@H](C(=O)O[C@@]4(CC)C(=O)OCc5c4cc4n(c5=O)Cc5cc6ccccc6nc5-4)C(C)C)cc3)c2)c1` (stereo partly drawn) [Example 24] ({X1-CO}-[NH(1,4-C6H4)NHCS][dP][ξH]G[dL][dN][dV]-{Camptothecin(20R,20-O)}), the IC50 with B16F10 stood at 0.9 µM; in the data set on HT29 it was 0.15 µM; with SW 480, 0.4 µM.
Regarding `CCCNC(=O)Nc1cccc(S(=O)(=O)Nc2cccc(C(CC(=O)O)NC(=O)Nc3ccc(NC(=S)N4CCC[C@H]4C(=O)N[C@@H](CC(C)C)C(=O)NCC(=O)N[C@@H](CC(C)C)C(=O)N[C@@H](C)C(=O)N[C@H](C(=O)O[C@]4(CC)C(=O)OCc5c4cc4n(c5=O)Cc5cc6ccccc6nc5-4)C(C)C)cc3)c2)c1` (stereo partly drawn) [Example 30], the values for the IC50 with HT29 and with SW 480 were 0.4 µM and 0.5 µM, respectively.
Taken in the same sequence, the figures for `CCCNC(=O)Nc1cccc(S(=O)(=O)Nc2cccc(C(CC(=O)O)NC(=O)Nc3ccc(NC(=S)N4CCC[C@H]4C(=O)N[C@@H](CC(C)C)C(=O)NCC(=O)N[C@@H](CC(C)C)C(=O)N[C@H](C)C(=O)N[C@H](C(=O)O[C@]4(CC)C(=O)OCc5c4cc4n(c5=O)Cc5cc6ccccc6nc5-4)C(C)C)cc3)c2)c1` (stereo partly drawn) [Example 31] were 0.25 µM and 0.3 µM.
As to `CCCNC(=O)Nc1cccc(S(=O)(=O)Nc2cccc(C(CC(=O)O)NC(=O)Nc3ccc(NC(=S)N4CCC[C@H]4C(=O)N[C@@H](CC(C)C)C(=O)NCC(=O)N[C@@H](CC(C)C)C(=O)N[C@H](C(=O)N[C@H](C(=O)O[C@]4(CC)C(=O)OCc5c4cc4n(c5=O)Cc5cc6ccccc6nc5-4)C(C)C)C(C)C)cc3)c2)c1` (stereo partly drawn) [Example 32], the IC50 in the data set with B16F10 is 0.2 µM; in the data set with HT29 it was 0.1 µM; in the data set on SW 480, 0.12 µM.
For `CCCNC(=O)Nc1cccc(S(=O)(=O)Nc2cccc(C(CC(=O)O)NC(=O)Nc3ccc(NC(=S)N4CCC[C@H]4C(=O)N[C@@H](CC(C)C)C(=O)NCC(=O)N[C@@H](CC(C)C)C(=O)N[C@@H](Cc4ccccc4)C(=O)N[C@H](C(=O)O[C@]4(CC)C(=O)OCc5c4cc4n(c5=O)Cc5cc6ccccc6nc5-4)C(C)C)cc3)c2)c1` (stereo partly drawn) [Example 33] the same measures were 1 µM, 0.3 µM and 0.4 µM.
As for `CCCNC(=O)Nc1cccc(S(=O)(=O)Nc2cccc(C(CC(=O)O)NC(=O)Nc3ccc(NC(=S)N4CCC[C@H]4C(=O)N[C@@H](CC(C)C)C(=O)NCC(=O)N[C@@H](CC(C)C)C(=O)N[C@@H](CO)C(=O)N[C@H](C(=O)O[C@]4(CC)C(=O)OCc5c4cc4n(c5=O)Cc5cc6ccccc6nc5-4)C(C)C)cc3)c2)c1` (stereo partly drawn) [Example 34], the IC50 with B16F10 came to 0.8 µM; with HT29, 0.05 µM; with SW 480 it was 0.1 µM.
For the molecule `CCCNC(=O)Nc1cccc(S(=O)(=O)Nc2cccc(C(CC(=O)O)NC(=O)Nc3ccc(NC(=S)N4CCC[C@H]4C(=O)N[C@@H](CC(C)C)C(=O)NCC(=O)N[C@@H](CC(C)C)C(=O)N[C@H](C(=O)N[C@H](C(=O)O[C@]4(CC)C(=O)OCc5c4cc4n(c5=O)Cc5cc6ccccc6nc5-4)C(C)C)C(C)CC)cc3)c2)c1` (stereo partly drawn) [Example 35], the IC50 in the data set with B16F10 is 0.8 µM; in the data set on HT29, 0.15 µM; in the data set with SW 480, 0.2 µM.
As to `CCCNC(=O)Nc1cccc(S(=O)(=O)Nc2cccc(C(CC(=O)O)NC(=O)Nc3ccc(NC(=S)N4CCC[C@H]4C(=O)N[C@@H](CC(C)C)C(=O)NCC(=O)N[C@@H](CC(C)C)C(=O)NCC(=O)N[C@H](C(=O)O[C@]4(CC)C(=O)OCc5c4cc4n(c5=O)Cc5cc6ccccc6nc5-4)C(C)C)cc3)c2)c1` (stereo partly drawn) [Example 37], the IC50 in the data set with HT29 is 0.3 µM; in the data set with SW 480, 0.5 µM.
